Measured values published in patent US10047383B2, “Bioproduction of chemicals” (Cargill, Incorporated, priority 2013, dated 2018).

Assays:
E. coli strains = experiment: Growth inhibition of E. coli strains grown in the presence of 3-HP; assay type: cell-based
H. elongata ACCase = experiment: Salt effect on ACCase from the halophile; assay type: biochemical, Halomonas elongata; conditions: FIG. 4, compared to the E. coli ACCase
Experimental: Concentrations of products were measured using the Nanodrop spectophotometer.

SMILES | 3-HP level at which growth inhibition has been demonstrated (E. coli strains) | effect of salt on H. elongata ACCase (H. elongata ACCase)
O=C(O)CCO [3-HP, 3-hydroxypropionic acid] | ≥ 20 g/L | –
N.O=C(O)CCO [NH4-3-HP] | – | less affected
Cl.N [NH4Cl, reference compound] | – | less affected
